Test results taken from US11382884B2, “Method for reducing lung infection” (priority 2017, dated 2022).
Where two headings read alike, the source gives them in different places.

Tests used:
P. aeruginosa [1] = conditions: after two weeks of treatment, 300 mg EDTA/day nebulised with tobramycin; sputum; FIG. 25
Text: Patients were monitored for a further four weeks, bringing the total study time to 10 weeks.

[2] = Protocol: Subjects were then discharged and treatment was continued twice a day for four weeks. Patients were monitored for a further four weeks, bringing the total study time to 10 weeks. At each study visit, lung function was measured by spirometry. Data was recorded as the best of three attempts, and results were expressed as % predicted.
[3] = remark: listed apart in the source
Protocol: (§1) Subjects are then discharged and treatment continued twice a day for four weeks. Subjects are monitored for a further four weeks, bringing the total study time to 10 weeks. Sputum is collected by induction with nebulised 3% hypertonic saline at 8-10 L/min for […]. Samples are collected prior to treatment, and at 2, 6 and 10 weeks, processed according to the relevant protocol and stored at −80° C.
(§2) Expectorated sputum is stored in RNAlater®, total RNA is extracted using a Qiagen RNEasy® or similar extraction kit, converted into cDNA, and inflammatory markers are monitored using qPCR as described by Sivaneson et al. (Sivaneson, M., Mikkelsen, H., Ventre, I., Bordi, C., and Filloux, A. (2011). Two-component regulatory systems in Pseudomonas aeruginosa: an intricate network mediating fimbrial and efflux pump gene expression. Mol Microbiol 79, 1353-1366) and quantified relative to known housekeeping genes, such as actin and/or GAPDH.
(§3) Expectorated sputum is frozen directly without processing and assayed for inflammatory markers as above. As a measure of structural damage, levels of matrix metalloproteinases (MMPs) and tissue inhibitors of metalloproteinases (TIMPs) are measured using gelatin zymography and immunoassays, respectively, as previously described (Gaggar et al., Eur Respir J. 2011 38(3): 721-727; Garratt et al., Eur Respir J. 2015 46(2):384-94). The amount of iron in the sputum is quantified by ICP-MS as previously described (Hunter et al., MBio. 2013 4(4):1-8). The amount of iron-binding proteins is assessed using immunoassays. Oxidative stress is assessed by measuring glutathione (GSSG and GSH) using immunoassays as previously described (Kettle et al., Eur Respir J. 2014 44(1):122-9).

[4] = remark: listed apart in the source
Protocol: Subjects with CF who need treatment with dry powder tobramycin are allocated into four cohorts and receive 112 mg dry powder twice a day for 28 days. In addition, Cohort 1 (patients>18 years) receives ascending doses of dry powder CaEDTA (37.5 mg BID for 1 week; 75 mg BID for 2 weeks, 150 mg BID for 1 week). Patients in cohort 2 (>18 years) receive CaEDTA (37.5 mg BID for 1 week; 75 BID for 2 weeks; 75 mg QID for 1 week). Patients in cohort 3 (12-18 years) receive CaEDTA (37.5 mg BID for 1 week; 75 mg BID for 2 weeks, 150 mg BID for 1 week. Finally, a control cohort receives tobramycin alone for 28 days.
Sputum samples are collected weekly and assessed for markers of infection and inflammation. Bacteria are monitored by sputum colony counts. As a measure of structural damage, levels of matrix metalloproteinases (MMPs) and tissue inhibitors of metalloproteinases (TIMPs) are measured using gelatin zymography and immunoassays, respectively, as previously described (Gaggar et al., Eur Respir J. 2011 38(3): 721-727; Garratt et al., Eur Respir J. 2015 46(2):384-94). The amount of iron in the sputum is quantified by ICP-MS as previously described (Hunter et al., 2013). The amount of iron-binding proteins is assessed using immunoassays. Myeloperoxidase activity is also assayed as a measure of neutrophilic inflammation as previously described (Gaggar et al., 2011). 3-chlorotyrosine is measured as a biomarker of the potent oxidant hypochlorous acid. Levels are measured using stable isotope dilution gas chromatography with mass spectrometry (Gaggar et al., 2011). Protein carbonyls are measured as an indicator of reactive oxygen species (ROS) using a commercial immunoassay kit (Gaggar et al., 2011). Oxidative stress is assessed by measuring glutathione (GSSG and GSH) using immunoassays as previously described (Kettle et al., 2014). Gene expression of inflammatory and oxidative stress markers (e.g. IL-8, IL-6, TNFa) will also be monitored by Nanostring, and proteins will be measured by ELISA. Oxidative stress can also be measured via metabolites, such as molondialdehyde (colorimetric assay) or 8-isoprostane (ELISA). Iron will be measured by elemental analysis using laser ablation-inductively coupled plasma-mass spectrometry (LA-ICP-MS).

[5] = remark: listed apart in the source
Protocol: as §1
as §2, with “RNAlater,” for “RNAlater®,”
as §3, with “MBio 2013,” for “MBio. 2013”

[6] = remark: listed apart in the source
Protocol: A single centre, randomised, double blind, crossover study of cystic fibrosis subjects is carried out. Subjects are randomised for treatment with inhaled CaEDTA or saline (placebo) 2-4 times a day for two weeks.
Iron levels, inflammatory markers, MMP/TIMP and FEV1 are monitored as above. Myeloperoxidase activity are also assayed as a measure of neutrophilic inflammation as previously described (Gaggar et al., 2011). 3-chlorotyrosine is measured as a biomarker of the potent oxidant hypochlorous acid. Levels are measured using stable isotope dilution gas chromatography with mass spectrometry (Gaggar et al., 2011). Protein carbonyls are measured as an indicator of ROS using a commercial immunoassay kit (Gaggar et al., 2011).

P. aeruginosa [7] = conditions: in vivo; cited from earlier work
[8] = in vivo; cited from earlier work
[9] = in vivo; cited from earlier work; remark: listed apart in the source
[10] = EDTA group compared with placebo group

O=C(O)CN(CCN(CC(=O)O)CC(=O)O)CC(=O)O [EDTA, ethylene diamine tetraacetic acid]
reduction in colony counts (P. aeruginosa [1]): > 400 fold
mean change in FEV1 ([2]; 2, 6 and 10 weeks after start of treatment, FIG. 26): clear improvement in lung function
dose dependence of effect on lung function ([2]; mg EDTA/kg body weight, FIG. 27): dose-dependent effect on lung function
gene expression of inflammatory markers (qPCR, sputum) [3, 10]: mean reduction
inflammatory markers in sputum [3, 10]: reduction
balance between MMPs and TIMPs ([3]; especially MMP-9 and TIMP-1): change in the balance
inflammatory markers in sputum [4, 10]: reduction
FEV1 ([4]; compared with control patients): increase
bacterial load in sputum ([4]; compared with control patients): reduction
balance between MMPs and TIMPs ([4]; especially MMP-9 and TIMP-1): change in the balance
iron levels in sputum ([4]; human, in vivo): decrease
gene expression of inflammatory markers (qPCR, sputum) [5, 10]: mean reduction
inflammatory markers in sputum [5, 10]: reduction
FEV1 ([5]; compared with placebo (carrier only)): increase
balance between MMPs and TIMPs ([5]; especially MMP-9 and TIMP-1): change in the balance
iron levels in sputum ([5]; human, in vivo): decrease
MMP/TIMP balance ([6]; compared with placebo): altered
levels of inflammatory markers ([6]; compared with placebo): reduced levels
levels of iron ([6]; compared with placebo): reduced levels
mean FEV1 ([6]; compared with placebo): increased
mean levels of carbonyls ([6]; human, in vivo): lower mean levels
mean levels of chlorotyrosine ([6]; human, in vivo): lower mean levels
myeloperoxidase activity ([6]; human, in vivo): reduced
treatment of bacterial infections by inhaled EDTA alone (P. aeruginosa [7]): does not treat bacterial infections
bronchoconstriction [8]: concentration-dependent bronchoconstriction
effect on FEV1 [9]: no effect on FEV1
